This passage reports IC50 results from paper PMC7999448, “Antibacterial and COX-2 Inhibitory Tetrahydrobisbenzylisoquinoline Alkaloids from the Philippine Medicinal Plant Phaeanthus ophthalmicus” (Plants, 2021).

Experiment [1] deals with T1, ovine COX-2 (Ovis aries, UniProt P79208).
T1 construct: gene PTGS2
T1 sequence (P79208 17-603): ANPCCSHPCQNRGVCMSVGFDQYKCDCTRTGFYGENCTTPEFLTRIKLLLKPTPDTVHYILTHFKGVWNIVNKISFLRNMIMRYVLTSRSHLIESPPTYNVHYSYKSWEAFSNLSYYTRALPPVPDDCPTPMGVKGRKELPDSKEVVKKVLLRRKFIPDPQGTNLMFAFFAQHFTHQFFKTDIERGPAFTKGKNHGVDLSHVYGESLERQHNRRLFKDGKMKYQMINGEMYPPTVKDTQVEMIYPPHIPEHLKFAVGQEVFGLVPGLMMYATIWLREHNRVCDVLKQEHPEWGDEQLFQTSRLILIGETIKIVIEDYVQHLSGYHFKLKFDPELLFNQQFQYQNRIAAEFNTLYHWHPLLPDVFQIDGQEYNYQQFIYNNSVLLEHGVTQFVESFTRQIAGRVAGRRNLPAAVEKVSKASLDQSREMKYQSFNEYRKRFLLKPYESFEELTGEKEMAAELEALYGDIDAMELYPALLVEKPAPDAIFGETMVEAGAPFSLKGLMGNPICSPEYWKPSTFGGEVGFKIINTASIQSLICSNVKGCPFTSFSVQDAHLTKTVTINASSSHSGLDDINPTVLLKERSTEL
Nature of the experiment: colorimetric peroxidase assay, TMPD oxidation at […] nm (Cayman kit). The format is biochemical. Particulars: read-out: IC50 (μM) vs. COX / COX-1.

The target in experiment [2] is T2, ovine COX-1 (Ovis aries, UniProt P05979).
T2 construct: gene PTGS1
T2 sequence (P05979 25-600): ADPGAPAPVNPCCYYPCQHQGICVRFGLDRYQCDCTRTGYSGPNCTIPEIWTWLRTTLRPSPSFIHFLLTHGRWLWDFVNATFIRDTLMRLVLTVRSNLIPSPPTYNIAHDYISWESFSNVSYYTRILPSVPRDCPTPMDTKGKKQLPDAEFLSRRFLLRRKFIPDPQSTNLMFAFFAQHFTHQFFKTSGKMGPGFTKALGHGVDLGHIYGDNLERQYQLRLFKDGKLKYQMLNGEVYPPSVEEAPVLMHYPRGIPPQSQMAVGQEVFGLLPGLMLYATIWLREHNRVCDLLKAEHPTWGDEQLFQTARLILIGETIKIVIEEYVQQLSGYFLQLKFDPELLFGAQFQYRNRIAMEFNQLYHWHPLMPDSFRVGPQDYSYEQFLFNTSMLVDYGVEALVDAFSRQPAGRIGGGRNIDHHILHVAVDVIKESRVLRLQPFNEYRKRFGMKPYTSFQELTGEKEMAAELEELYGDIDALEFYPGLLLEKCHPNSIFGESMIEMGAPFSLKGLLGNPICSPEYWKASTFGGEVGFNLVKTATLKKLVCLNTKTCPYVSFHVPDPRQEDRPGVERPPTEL
The description is as above. The format is biochemical.

As for `COc1ccc2cc1Oc1ccc(cc1)C[C@H]1c3cc(c(OC)cc3CCN1C)Oc1c(OC)c(OC)cc3c1[C@H](C2)N(C)CC3` [compound 1, (+)-tetrandrine], the IC50 in experiment [1] and in experiment [2] was > 100 µM in each case.
